Test results reported in ChEMBL document CHEMBL4706552, “Discovery of 4-methyl-N-(4-((4-methylpiperazin- 1-yl)methyl)-3-(trifluoromethyl)phenyl)-3-((6-(pyridin-3-yl)-1H-pyrazolo[3,4-d]pyrimidin-4-yl)-oxy)benzamide as a potent inhibitor of RET and its gatekeeper mutant” (Eur J Med Chem, 2020).
The source made the active and inactive calls. The calls are words filed in the database; no cut-off is given here.

Key:
BaF3 [1] = test: Antitumor activity against KIF5B-RET V804M mutant fusion protein expressing mouse BaF3 cells implanted in BALB/c mouse assessed as tumor growth inhibition at 30 to 50 mg/kg, iv administered once daily for 7 days relative to control; format: functional; conditions: dose 30-50 mg/kg, time 7 day
[2] = Cmax in Sprague-Dawley rat at 1 mg/kg, iv; format: ADME, organism-based; parameters: route intravenous, dose 1 mg/kg; conditions: in vivo
BaF3 [3] = test: Inhibition of CCDC6-RET V804M mutant fusion protein (unknown origin) expressed in mouse BaF3 cells assessed as reduction in AKT phosphorylation at 10 to 500 nM measured after 4 hrs by Western blot analysis; format: cell-based; conditions: Homo sapiens, dose 10-500 nM
[4] = biological target: Proto-oncogene tyrosine-protein kinase receptor Ret (Homo sapiens, UniProt P07949, V804M); test: Inhibition of recombinant human N-terminal GST-HIS6 fused RET V804M mutant C-terminal domain (H658 to S1114 residues) expressed in Sf9 insect cells using TRK-C-derived peptide as substrate in presence of [33P]-ATP by filter binding assay
MDA-MB-231 = test: Antiproliferative activity against human MDA-MB-231 cells measured after 48 hrs by MTS assay; format: functional
BaF3 [5] = test: Antitumor activity against KIF5B-RET V804M mutant fusion protein expressing mouse BaF3 cells implanted in iv dosed BALB/c mouse assessed as tumor growth inhibition administered once daily for 7 days; format: functional, organism-based; conditions: dose 30-50 mg/kg, time 7.0 day
BaF3 [6] = test: Inhibition of CCDC6-RET V804M mutant fusion protein (unknown origin) expressed in mouse BaF3 cells assessed as reduction in SHC phosphorylation at 10 to 500 nM measured after 4 hrs by Western blot analysis; format: cell-based; conditions: Homo sapiens, dose 10-500 nM
[7] = biological target: Kinesin-1 heavy chain/ Tyrosine-protein kinase receptor RET (Homo sapiens) (UniProt P07949+P33176); test: Inhibition of KIF5B-RET fusion protein (unknown origin) expressed in mouse BaF3 cells assessed as reduction in RET autophosphorylation at 50 nM measured after 4 hrs by Western blot analysis; format: cell-based
[8] = biological target: T1, Coiled-coil domain-containing protein 6/Tyrosine-protein kinase receptor RET (Homo sapiens) (UniProt P07949+Q16204); test: Inhibition of CCDC6-RET fusion protein (unknown origin) expressed in mouse BaF3 cells assessed as reduction in ERK phosphorylation at 10 to 500 nM measured after 4 hrs by Western blot analysis; format: cell-based; conditions: dose 10-500 nM
[9] = biological target: Kinesin-1 heavy chain/ Tyrosine-protein kinase receptor RET (Homo sapiens, UniProt P07949); test: Inhibition of KIF5B-RET fusion protein (unknown origin) by radiometric assay
BaF3 [10] = test: Inhibition of CCDC6-RET V804M mutant fusion protein (unknown origin) expressed in mouse BaF3 cells assessed as reduction in RET phosphorylation at 10 to 500 nM measured after 4 hrs by Western blot analysis; format: cell-based; conditions: Homo sapiens, dose 10-500 nM
[11] = biological target: T1, Coiled-coil domain-containing protein 6/Tyrosine-protein kinase receptor RET (Homo sapiens); test: Inhibition of CCDC6-RET fusion protein (unknown origin) expressed in mouse BaF3 cells assessed as reduction in SHC phosphorylation at 10 to 500 nM measured after 4 hrs by Western blot analysis; format: cell-based; conditions: dose 10-500 nM
KYSE-450 = test: Antiproliferative activity against human KYSE-450 cells at 3.3 uM measured after 48 hrs by MTS assay; format: functional; conditions: read-out: GI
BaF3 [12] = test: Antitumor activity against KIF5B-RET fusion protein expressing mouse BaF3 cells implanted in BALB/c mouse assessed as tumor growth inhibition at 30 to 50 mg/kg, iv administered once daily for 7 days relative to control; format: functional; conditions: dose 30-50 mg/kg, time 7 day
A-375 = test: Antiproliferative activity against human A-375 cells measured after 48 hrs by MTS assay; format: functional
Mus musculus [13] = test: In vivo inhibition of KIF5B-RET V804M mutant fusion protein in BALB/c mouse implanted with KIF5B-RET V804M mutant fusion protein expressing mouse BaF3 cells assessed as reduction in RET phosphorylation at 30 to 50 mg/kg, iv administered daily for 7 days and measured 4 hrs post last dose by Western blot analysis; format: functional, organism-based; conditions: dose 30-50 mg/kg, time 7.0 day
[14] = Tmax in Sprague-Dawley rat at 1 mg/kg, iv; format: ADME, organism-based; conditions: in vivo
[15] = Half life in Sprague-Dawley rat at 10 mg/kg, po; format: ADME, organism-based; conditions: in vivo
[16] = biological target: T1, Coiled-coil domain-containing protein 6/Tyrosine-protein kinase receptor RET (Homo sapiens); test: Inhibition of CCDC6-RET fusion protein (unknown origin) expressed in mouse BaF3 cells assessed as reduction in AKT phosphorylation at 10 to 500 nM measured after 4 hrs by Western blot analysis; format: cell-based; conditions: dose 10-500 nM
[17] = system: Proto-oncogene tyrosine-protein kinase receptor Ret (Homo sapiens), P07949 [M918T]; test: Binding affinity to wild-type human partial length RET M918T mutant (E713 to D1014 residues) expressed in bacterial expression system assessed as residual binding level at 1 uM by kinomescan method relative to control
[18] = AUC (0 to t) in Sprague-Dawley rat at 10 mg/kg, po; format: ADME, organism-based; parameters: dose 10 mg/kg; conditions: in vivo
A549 = test: Antiproliferative activity against human A549 cells measured after 48 hrs by MTS assay; format: functional
[19] = Half life in Sprague-Dawley rat at 1 mg/kg, iv; format: ADME, organism-based; conditions: in vivo
[20] = biological target: T1, Coiled-coil domain-containing protein 6/Tyrosine-protein kinase receptor RET (Homo sapiens); test: Inhibition of CCDC6-RET fusion protein in human LC-2-ad cells assessed as reduction in cell proliferation measured after 48 hrs by MTS assay; format: cell-based
[21] = Antiproliferative activity against human SKGT4 cells measured after 48 hrs by MTS assay; format: functional
[22] = Oral bioavailability in Sprague-Dawley rat at 10 mg/kg; format: ADME, organism-based; conditions: in vivo
[23] = biological target: Proto-oncogene tyrosine-protein kinase receptor Ret (Homo sapiens, UniProt P07949, V804L); test: Inhibition of recombinant human N-terminal GST-HIS6 fused RET V804L mutant C-terminal domain (H658 to S1114 residues) expressed in Sf9 insect cells using TRK-C-derived peptide as substrate in presence of [33P]-ATP by filter binding assay
HepG2 = test: Antiproliferative activity against human HepG2 cells at 3.3 uM measured after 48 hrs by MTS assay; format: functional; conditions: read-out: GI
[24] = biological target: Proto-oncogene tyrosine-protein kinase receptor Ret (Homo sapiens, UniProt P07949); test: Inhibition of recombinant wild-type human N-terminal GST-HIS6 fused RET C-terminal domain (H658 to S1114 residues) expressed in Sf9 insect cells using TRK-C-derived peptide as substrate in presence of [33P]-ATP by filter binding assay
Mus musculus [25] = test: In vivo inhibition of KIF5B-RET fusion protein in BALB/c mouse implanted with KIF5B-RET fusion protein expressing mouse BaF3 cells assessed as reduction in SHC phosphorylation at 30 to 50 mg/kg, iv administered daily for 7 days and measured 4 hrs post last dose by Western blot analysis; format: functional, organism-based; conditions: dose 30-50 mg/kg, time 7.0 day
[26] = system: Proto-oncogene tyrosine-protein kinase receptor Ret (Homo sapiens), P07949 [V804L]; test: Binding affinity to wild-type human partial length RET V804L mutant (E713 to D1014 residues) expressed in bacterial expression system assessed as residual binding level at 1 uM by kinomescan method relative to control
[27] = Tmax in Sprague-Dawley rat at 10 mg/kg, po; format: ADME, organism-based; conditions: in vivo
[28] = AUC (0 to infinity) in Sprague-Dawley rat at 1 mg/kg, iv; format: ADME, organism-based; parameters: route intravenous, time infinity, dose 1 mg/kg; conditions: in vivo
[29] = Cytotoxicity against mouse BaF3 cells assessed as reduction in cell proliferation measured after 48 hrs by MTS assay; format: cell-based

T1 sequence (P07949 29-1114 limits assumed): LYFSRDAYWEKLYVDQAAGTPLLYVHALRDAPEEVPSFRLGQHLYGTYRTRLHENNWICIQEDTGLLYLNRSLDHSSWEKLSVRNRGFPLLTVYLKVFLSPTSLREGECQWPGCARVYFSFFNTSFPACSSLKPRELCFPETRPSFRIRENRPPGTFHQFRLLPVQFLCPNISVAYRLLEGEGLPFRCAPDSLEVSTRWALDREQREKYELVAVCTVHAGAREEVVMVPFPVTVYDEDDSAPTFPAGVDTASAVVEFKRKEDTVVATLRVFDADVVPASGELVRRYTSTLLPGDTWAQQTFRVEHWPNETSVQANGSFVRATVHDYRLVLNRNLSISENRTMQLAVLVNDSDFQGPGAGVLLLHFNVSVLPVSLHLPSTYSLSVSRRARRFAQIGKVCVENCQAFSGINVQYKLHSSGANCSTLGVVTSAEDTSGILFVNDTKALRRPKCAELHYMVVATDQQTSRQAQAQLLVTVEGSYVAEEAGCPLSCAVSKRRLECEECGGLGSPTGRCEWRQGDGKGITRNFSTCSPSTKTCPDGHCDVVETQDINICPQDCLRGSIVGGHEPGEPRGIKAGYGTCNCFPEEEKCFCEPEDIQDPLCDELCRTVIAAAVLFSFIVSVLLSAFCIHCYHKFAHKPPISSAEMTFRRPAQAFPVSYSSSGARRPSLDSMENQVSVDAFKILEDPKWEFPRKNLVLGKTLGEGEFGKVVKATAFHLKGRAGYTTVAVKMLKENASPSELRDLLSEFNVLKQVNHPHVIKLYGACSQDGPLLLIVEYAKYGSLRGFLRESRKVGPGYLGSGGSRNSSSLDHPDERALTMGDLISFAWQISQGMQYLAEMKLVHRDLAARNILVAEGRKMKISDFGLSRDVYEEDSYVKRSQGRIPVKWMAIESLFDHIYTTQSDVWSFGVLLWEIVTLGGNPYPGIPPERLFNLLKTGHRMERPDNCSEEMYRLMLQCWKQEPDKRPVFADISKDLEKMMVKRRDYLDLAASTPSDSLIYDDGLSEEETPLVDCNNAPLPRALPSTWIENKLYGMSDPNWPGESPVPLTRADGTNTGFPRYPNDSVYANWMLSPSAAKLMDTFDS
T1 sequence (Q16204 2-474 partner limits assumed): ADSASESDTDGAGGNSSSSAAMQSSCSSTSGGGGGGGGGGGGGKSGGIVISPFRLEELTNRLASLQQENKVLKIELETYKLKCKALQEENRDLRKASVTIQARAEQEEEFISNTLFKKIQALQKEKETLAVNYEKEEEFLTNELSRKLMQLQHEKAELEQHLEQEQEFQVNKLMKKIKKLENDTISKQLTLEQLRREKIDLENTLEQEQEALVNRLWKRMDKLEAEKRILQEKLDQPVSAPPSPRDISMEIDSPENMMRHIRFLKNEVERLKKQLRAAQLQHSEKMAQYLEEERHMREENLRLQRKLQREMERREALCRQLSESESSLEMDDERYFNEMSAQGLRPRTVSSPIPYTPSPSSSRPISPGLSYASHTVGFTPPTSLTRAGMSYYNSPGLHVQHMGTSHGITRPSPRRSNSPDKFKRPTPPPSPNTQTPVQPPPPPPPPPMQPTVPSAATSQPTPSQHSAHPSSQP
Kinesin-1 heavy chain/ Tyrosine-protein kinase receptor RET (Homo sapiens), sequence (P07949 29-1114 limits assumed): as the sequence (P07949 29-1114 limits assumed) above
Kinesin-1 heavy chain/ Tyrosine-protein kinase receptor RET (Homo sapiens), sequence (P33176 2-963 partner limits assumed): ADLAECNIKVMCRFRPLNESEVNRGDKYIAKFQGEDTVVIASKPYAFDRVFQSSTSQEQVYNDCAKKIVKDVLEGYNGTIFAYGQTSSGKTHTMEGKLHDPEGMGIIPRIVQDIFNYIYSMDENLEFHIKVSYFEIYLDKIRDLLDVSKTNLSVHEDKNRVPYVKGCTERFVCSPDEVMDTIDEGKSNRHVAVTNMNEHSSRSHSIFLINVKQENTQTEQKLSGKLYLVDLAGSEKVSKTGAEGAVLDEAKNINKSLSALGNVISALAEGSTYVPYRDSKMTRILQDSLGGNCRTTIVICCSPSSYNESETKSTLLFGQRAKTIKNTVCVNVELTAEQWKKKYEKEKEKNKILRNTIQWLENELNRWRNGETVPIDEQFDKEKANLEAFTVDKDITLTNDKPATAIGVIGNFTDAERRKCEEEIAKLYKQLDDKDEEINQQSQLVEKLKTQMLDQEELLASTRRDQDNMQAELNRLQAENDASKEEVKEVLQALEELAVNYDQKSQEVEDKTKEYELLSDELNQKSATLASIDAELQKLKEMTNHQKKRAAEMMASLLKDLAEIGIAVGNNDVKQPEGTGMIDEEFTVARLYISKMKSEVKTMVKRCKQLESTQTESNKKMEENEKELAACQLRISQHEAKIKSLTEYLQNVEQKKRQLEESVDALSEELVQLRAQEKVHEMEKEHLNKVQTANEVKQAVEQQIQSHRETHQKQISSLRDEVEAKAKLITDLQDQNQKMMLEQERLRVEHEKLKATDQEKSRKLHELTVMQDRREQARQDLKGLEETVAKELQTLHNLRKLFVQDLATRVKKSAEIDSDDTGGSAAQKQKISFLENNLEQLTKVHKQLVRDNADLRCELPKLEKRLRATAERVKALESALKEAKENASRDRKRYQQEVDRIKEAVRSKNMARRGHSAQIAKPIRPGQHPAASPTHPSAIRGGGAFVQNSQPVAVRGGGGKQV
Proto-oncogene tyrosine-protein kinase receptor Ret (Homo sapiens), P07949 [V804L], sequence (P07949 whole entry V804L, the tested form may be a part): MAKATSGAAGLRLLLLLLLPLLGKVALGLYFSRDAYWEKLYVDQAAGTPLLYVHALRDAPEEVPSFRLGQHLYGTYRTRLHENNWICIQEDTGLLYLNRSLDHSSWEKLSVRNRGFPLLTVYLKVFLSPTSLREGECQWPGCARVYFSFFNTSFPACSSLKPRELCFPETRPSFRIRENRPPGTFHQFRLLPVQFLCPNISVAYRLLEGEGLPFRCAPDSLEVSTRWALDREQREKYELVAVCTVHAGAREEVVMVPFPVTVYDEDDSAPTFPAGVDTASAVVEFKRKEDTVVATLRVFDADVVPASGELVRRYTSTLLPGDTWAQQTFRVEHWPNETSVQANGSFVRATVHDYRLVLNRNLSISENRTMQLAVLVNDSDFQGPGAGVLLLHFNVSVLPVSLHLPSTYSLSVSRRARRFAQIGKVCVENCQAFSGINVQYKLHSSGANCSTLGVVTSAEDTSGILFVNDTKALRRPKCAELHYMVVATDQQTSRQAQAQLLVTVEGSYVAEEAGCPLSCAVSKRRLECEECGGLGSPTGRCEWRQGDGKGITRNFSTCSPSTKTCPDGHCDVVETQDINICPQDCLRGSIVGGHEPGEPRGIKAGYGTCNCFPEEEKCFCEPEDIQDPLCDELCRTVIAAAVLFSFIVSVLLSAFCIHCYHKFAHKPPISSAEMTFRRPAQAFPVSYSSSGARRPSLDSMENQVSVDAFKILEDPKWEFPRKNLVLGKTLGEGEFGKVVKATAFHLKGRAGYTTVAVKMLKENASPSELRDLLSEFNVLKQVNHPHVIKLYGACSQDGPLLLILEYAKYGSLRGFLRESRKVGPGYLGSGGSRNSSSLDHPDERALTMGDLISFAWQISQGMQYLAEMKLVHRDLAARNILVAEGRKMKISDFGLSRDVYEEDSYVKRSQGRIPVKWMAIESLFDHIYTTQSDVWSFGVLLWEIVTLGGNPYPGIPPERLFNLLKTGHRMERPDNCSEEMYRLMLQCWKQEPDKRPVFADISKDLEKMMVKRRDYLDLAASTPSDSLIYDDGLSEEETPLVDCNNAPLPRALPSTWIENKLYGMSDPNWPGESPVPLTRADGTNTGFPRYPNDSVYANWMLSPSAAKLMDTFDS

In the case of `Cc1ccc(C(=O)Nc2ccc(CN3CCN(C)CC3)c(C(F)(F)F)c2)cc1Oc1nc(-c2cccnc2)nc2[nH]ncc12`, the TGI (BaF3 [1]) is reported as >60%, the Cmax [2] is reported as 6100 ng/mL and the inhibition (BaF3 [3]) is reported as “Active”. For the same compound, the IC50 [4] was 7.86 nM, the GI50 (MDA-MB-231) was 2430 nM and the Activity (BaF3 [5]) was “Dose-dependent effect”. For the same compound, the inhibition (BaF3 [6]) was “Active”, the inhibition [7] was “Dose-dependent effect” and the inhibition [8] was “Active”. For the same compound, the IC50 [9] was 8.86 nM, the inhibition (BaF3 [10]) was “Active” and the inhibition [11] was “Active”. For the same compound, the inhibition of growth at 3.3 µM (KYSE-450) was 39%, the TGI (BaF3 [12]) was >60% and the GI50 (A-375) was 2950 nM. For the same compound, the inhibition (Mus musculus [13]) was “Dose-dependent effect”, the Tmax [14] was 4.98 min and the half-life [15] was 7.59 h. For the same compound, the inhibition [16] was “Active”, the Activity [17] was 0% and the AUC(0-t) [18] was 2110 ng·h/mL. It also gave a GI50 (A549) of 3390 nM, a half-life [19] of 4.28 h and a GI50 [20] of 38 nM. The GI50 [21] was 5370 nM, the bioavailability [22] was 3% and the IC50 [23] was 15.1 nM. For the same compound, the inhibition of growth at 3.3 µM (HepG2) was 33%, the IC50 [24] was 3.98 nM and the inhibition (Mus musculus [25]) was “Dose-dependent effect”. For the same compound, the Activity [26] was 0.8%, the Tmax [27] was 0.75 h and the AUC(0-inf) [28] was 7010 ng·h/mL. It also gave a GI50 at 48 h [29] of 8030 nM.
